{
  "source": "ChEMBL document CHEMBL1150618",
  "about": "“Isotactic polymethoxydienes from the Philippines sponge Myriastra clavosa” (J Nat Prod, 2002)",
  "note": "pIC50: −log10 of the molar value.",
  "data": [
    {"system": "HCT-116", "test": "Cytotoxicity against human HCT116 cells", "format": "functional, cell-based", "values": [
      {"smiles": "C=CC[C@@H](C[C@@H](C[C@@H](C[C@@H](C[C@@H](C[C@@H](C[C@@H](C[C@@H](C[C@@H](C[C@H](OC)/C(C)=C/CCCCC)OC)OC)OC)OC)OC)OC)OC)OC)OC", "pIC50": 4.12},
      {"smiles": "C=CC[C@@H](C[C@@H](C[C@@H](C[C@@H](C[C@@H](C[C@@H](C[C@@H](C[C@@H](C[C@H](OC)/C(C)=C/CCCCC)OC)OC)OC)OC)OC)OC)OC)OC", "pIC50": 4.07},
      {"smiles": "C=CC[C@@H](C[C@@H](C[C@@H](C[C@@H](C[C@@H](C[C@@H](C[C@@H](C[C@H](OC)/C(C)=C/CCCCC)OC)OC)OC)OC)OC)OC)OC", "pIC50": 3.97},
      {"smiles": "C=CC[C@@H](C[C@@H](C[C@@H](C[C@@H](C[C@@H](C[C@@H](C[C@@H](C[C@@H](C[C@@H](C[C@@H](C[C@H](OC)/C(C)=C/CCCCC)OC)OC)OC)OC)OC)OC)OC)OC)OC)OC", "pIC50": 4.04},
      {"smiles": "C=CC[C@@H](C[C@@H](C[C@@H](C[C@@H](C[C@@H](C[C@@H](C[C@H](OC)/C(C)=C/CCCCC)OC)OC)OC)OC)OC)OC", "pIC50": 3.92}
    ]}
  ]
}
